From ChEMBL document CHEMBL3046208, “Natural and synthetic podolactones with potential use as natural herbicide models” (2000)
Activity calls are given as the source filed them. The calls are words filed in the database; no cut-off is given here.

Legend:
Hordeum vulgare [1] = assay: Stimulation of germination of Hordeum vulgare (barley) at 0.1 mM after 5 days relative to untreated control; format: functional
Solanum lycopersicum [2] = assay: Stimulation of root length of Solanum lycopersicum (tomato) at 0.1 mM after 5 days relative to untreated control; format: functional
Allium cepa [3] = assay: Inhibition of shoot length of Allium cepa (onion) at 10 uM after 5 days relative to untreated control; format: functional; conditions: 120 h
Lepidium sativum [4] = assay: Stimulation of root length of Lepidium sativum at 1 uM after 5 days relative to untreated control; format: functional
Lepidium sativum [5] = assay: Inhibition of shoot length of Lepidium sativum at 0.1 mM after 5 days relative to untreated control; format: functional; conditions: 120 h
Solanum lycopersicum [6] = assay: Inhibition of shoot length of Solanum lycopersicum (tomato) at 10 uM after 5 days relative to untreated control; format: functional, organism-based
Lepidium sativum [7] = assay: Inhibition of root length of Lepidium sativum at 10 uM after 5 days relative to untreated control; format: functional, organism-based
Allium cepa [8] = assay: Stimulation of root length of Allium cepa (onion) at 0.1 mM after 5 days relative to untreated control; format: functional
Triticum aestivum [9] = assay: Inhibition of shoot length of Triticum aestivum (wheat) at 0.1 mM after 5 days relative to untreated control; format: functional
Triticum aestivum [10] = assay: Inhibition of germination of Triticum aestivum (wheat) at 0.1 mM after 5 days relative to untreated control; format: functional
Allium cepa [11] = assay: Stimulation of germination of Allium cepa (onion) at 0.1 mM after 5 days relative to untreated control; format: functional
Hordeum vulgare [12] = assay: Stimulation of shoot length of Hordeum vulgare (barley) at 0.1 mM after 5 days relative to untreated control; format: functional
Solanum lycopersicum [13] = assay: Inhibition of germination of Solanum lycopersicum (tomato) at 0.1 mM after 5 days relative to untreated control; format: functional; conditions: 120 h
Lepidium sativum [14] = assay: Stimulation of root length of Lepidium sativum at 0.1 mM after 5 days relative to untreated control; format: functional
Allium cepa [15] = assay: Stimulation of shoot length of Allium cepa (onion) at 0.1 mM after 5 days relative to untreated control; format: functional
Triticum aestivum [16] = assay: Stimulation of root length of Triticum aestivum (wheat) at 0.1 mM after 5 days relative to untreated control; format: functional
Lepidium sativum [17] = assay: Inhibition of germination of Lepidium sativum at 10 uM after 5 days relative to untreated control; format: functional, organism-based
Lactuca sativa [18] = assay: Inhibition of root length of Lactuca sativa cv. Nigra (lettuce) at 0.1 mM after 5 days relative to untreated control; format: functional
Solanum lycopersicum [19] = assay: Stimulation of shoot length of Solanum lycopersicum (tomato) at 0.1 mM after 5 days relative to untreated control; format: functional
Solanum lycopersicum [20] = assay: Inhibition of root length of Solanum lycopersicum (tomato) at 1 uM after 5 days relative to untreated control; format: functional; conditions: 120 h
Triticum aestivum [21] = assay: Stimulation of germination of Triticum aestivum (wheat) at 0.1 mM after 5 days relative to untreated control; format: functional
Hordeum vulgare [22] = assay: Inhibition of germination of Hordeum vulgare (barley) at 0.1 mM after 5 days relative to untreated control; format: functional; conditions: 120 h
Solanum lycopersicum [23] = assay: Stimulation of germination of Solanum lycopersicum (tomato) at 0.1 mM after 5 days relative to untreated control; format: functional
Lactuca sativa [24] = assay: Inhibition of shoot length of Lactuca sativa cv. Roman (lettuce) at 0.1 mM after 5 days relative to untreated control; format: functional; conditions: 120 h
Lactuca sativa [25] = assay: Inhibition of germination of Lactuca sativa cv. Nigra (lettuce) at 0.1 mM after 5 days relative to untreated control; format: functional
Lactuca sativa [26] = assay: Stimulation of germination of Lactuca sativa cv. Roman (lettuce) at 0.1 mM after 5 days relative to untreated control; format: functional
Hordeum vulgare [27] = assay: Inhibition of shoot length of Hordeum vulgare (barley) at 0.1 mM after 5 days relative to untreated control; format: functional; conditions: 120 h
Lactuca sativa [28] = assay: Stimulation of shoot length of Lactuca sativa cv. Nigra (lettuce) at 0.1 mM after 5 days relative to untreated control; format: functional
Solanum lycopersicum [29] = assay: Inhibition of germination of Solanum lycopersicum (tomato) at 10 uM after 5 days relative to untreated control; format: functional, organism-based
Triticum aestivum [30] = assay: Inhibition of shoot length of Triticum aestivum (wheat) at 10 uM after 5 days relative to untreated control; format: functional, organism-based
Solanum lycopersicum [31] = assay: Inhibition of root length of Solanum lycopersicum (tomato) at 10 uM after 5 days relative to untreated control; format: functional, organism-based
Allium cepa [32] = assay: Inhibition of root length of Allium cepa (onion) at 10 uM after 5 days relative to untreated control; format: functional; conditions: 120 h
Hordeum vulgare [33] = assay: Inhibition of root length of Hordeum vulgare (barley) at 0.1 mM after 5 days relative to untreated control; format: functional; conditions: 120 h
Lepidium sativum [34] = assay: Inhibition of germination of Lepidium sativum at 0.1 mM after 5 days relative to untreated control; format: functional
Lactuca sativa [35] = assay: Inhibition of germination of Lactuca sativa cv. Roman (lettuce) at 0.1 mM after 5 days relative to untreated control; format: functional; conditions: 120 h
Allium cepa [36] = assay: Inhibition of shoot length of Allium cepa (onion) at 0.1 mM after 5 days relative to untreated control; format: functional; conditions: 120 h
Triticum aestivum [37] = assay: Inhibition of root length of Triticum aestivum (wheat) at 0.1 mM after 5 days relative to untreated control; format: functional
Lepidium sativum [38] = assay: Stimulation of germination of Lepidium sativum at 0.1 mM after 5 days relative to untreated control; format: functional
Lepidium sativum [39] = assay: Stimulation of shoot length of Lepidium sativum at 0.1 mM after 5 days relative to untreated control; format: functional
Triticum aestivum [40] = assay: Inhibition of root length of Triticum aestivum (wheat) at 10 uM after 5 days relative to untreated control; format: functional; conditions: 120 h
Lactuca sativa [41] = assay: Inhibition of shoot length of Lactuca sativa cv. Nigra (lettuce) at 0.1 mM after 5 days relative to untreated control; format: functional; conditions: 120 h
Lepidium sativum [42] = assay: Inhibition of root length of Lepidium sativum at 0.1 mM after 5 days relative to untreated control; format: functional; conditions: 120 h
Lactuca sativa [43] = assay: Stimulation of root length of Lactuca sativa cv. Roman (lettuce) at 0.1 mM after 5 days relative to untreated control; format: functional
Solanum lycopersicum [44] = assay: Inhibition of root length of Solanum lycopersicum (tomato) at 0.1 mM after 5 days relative to untreated control; format: functional; conditions: 120 h
Lactuca sativa [45] = assay: Stimulation of germination of Lactuca sativa cv. Nigra (lettuce) at 0.1 mM after 5 days relative to untreated control; format: functional
Allium cepa [46] = assay: Inhibition of root length of Allium cepa (onion) at 0.1 mM after 5 days relative to untreated control; format: functional
Lactuca sativa [47] = assay: Inhibition of root length of Lactuca sativa cv. Roman (lettuce) at 0.1 mM after 5 days relative to untreated control; format: functional
Lepidium sativum [48] = assay: Stimulation of shoot length of Lepidium sativum at 1 uM after 5 days relative to untreated control; format: functional
Hordeum vulgare [49] = assay: Stimulation of root length of Hordeum vulgare (barley) at 0.1 mM after 5 days relative to untreated control; format: functional
Lactuca sativa [50] = assay: Stimulation of shoot length of Lactuca sativa cv. Roman (lettuce) at 0.1 mM after 5 days relative to untreated control; format: functional
Allium cepa [51] = assay: Inhibition of germination of Allium cepa (onion) at 0.1 mM after 5 days relative to untreated control; format: functional; conditions: 120 h
Hordeum vulgare [52] = assay: Inhibition of root length of Hordeum vulgare (barley) at 10 uM after 5 days relative to untreated control; format: functional, organism-based
Triticum aestivum [53] = assay: Stimulation of shoot length of Triticum aestivum (wheat) at 0.1 mM after 5 days relative to untreated control; format: functional
Lepidium sativum [54] = assay: Inhibition of shoot length of Lepidium sativum at 10 uM after 5 days relative to untreated control; format: functional, organism-based
Lactuca sativa [55] = assay: Stimulation of root length of Lactuca sativa cv. Nigra (lettuce) at 0.1 mM after 5 days relative to untreated control; format: functional
Solanum lycopersicum [56] = assay: Inhibition of shoot length of Solanum lycopersicum (tomato) at 0.1 mM after 5 days relative to untreated control; format: functional; conditions: 120 h
Hordeum vulgare [57] = assay: Inhibition of shoot length of Hordeum vulgare (barley) at 10 uM after 5 days relative to untreated control; format: functional, organism-based
Solanum lycopersicum [58] = assay: Inhibition of shoot length of Solanum lycopersicum (tomato) at 1 uM after 5 days relative to untreated control; format: functional; conditions: 120 h
Hordeum vulgare [59] = assay: Inhibition of germination of Hordeum vulgare (barley) at 1 uM after 5 days relative to untreated control; format: functional; conditions: 120 h
Solanum lycopersicum [60] = assay: Stimulation of root length of Solanum lycopersicum (tomato) at 1 nM after 5 days relative to untreated control; format: functional
Allium cepa [61] = assay: Inhibition of germination of Allium cepa (onion) at 10 nM after 5 days relative to untreated control; format: functional; conditions: 120 h

CO[C@@H]1OC(=O)C=C2C1=C[C@H]1OC(=O)[C@@]3(C)CCC[C@@]2(C)[C@@H]13
Activity (Hordeum vulgare [1]): >40%
Activity (Solanum lycopersicum [2]): >40%
inhibition at 10 µM (Allium cepa [3]): -74%
Activity (Lepidium sativum [4]): -44%
inhibition at 100 µM (Lepidium sativum [5]): > 40%
inhibition (Solanum lycopersicum [6]): Active
inhibition (Lepidium sativum [7]): Active
Activity (Allium cepa [8]): >40%
inhibition at 100 µM (Triticum aestivum [9]; 120 h): > 40%
inhibition at 100 µM (Triticum aestivum [10]; 120 h): > 40%
Activity (Allium cepa [11]): >40%
Activity (Hordeum vulgare [12]): >40%
inhibition at 100 µM (Solanum lycopersicum [13]): > 40%
Activity (Lepidium sativum [14]): >40%
Activity (Allium cepa [15]): >40%
Activity (Triticum aestivum [16]): >40%
inhibition (Lepidium sativum [17]): Active
inhibition at 100 µM (Lactuca sativa [18]; 120 h): > 40%
Activity (Solanum lycopersicum [19]): >40%
inhibition at 1 µM (Solanum lycopersicum [20]): -45%
Activity (Triticum aestivum [21]): >40%
inhibition at 100 µM (Hordeum vulgare [22]): > 40%
Activity (Solanum lycopersicum [23]): >40%
inhibition at 100 µM (Lactuca sativa [24]): > 40%
inhibition at 100 µM (Lactuca sativa [25]; 120 h): 20%
Activity (Lactuca sativa [26]): >40%
inhibition at 100 µM (Hordeum vulgare [27]): > 40%
Activity (Lactuca sativa [28]): >40%
inhibition (Solanum lycopersicum [29]): Active
inhibition (Triticum aestivum [30]): inactive
inhibition (Solanum lycopersicum [31]): Active
inhibition at 10 µM (Allium cepa [32]): -54%
inhibition at 100 µM (Hordeum vulgare [33]): > 40%
inhibition at 100 µM (Lepidium sativum [34]; 120 h): > 40%
inhibition at 100 µM (Lactuca sativa [35]): > 40%
inhibition at 100 µM (Allium cepa [36]): > 40%
inhibition at 100 µM (Triticum aestivum [37]; 120 h): > 40%
Activity (Lepidium sativum [38]): >40%
Activity (Lepidium sativum [39]): >40%
inhibition at 10 µM (Triticum aestivum [40]): -42%
inhibition at 100 µM (Lactuca sativa [41]): > 40%
inhibition at 100 µM (Lepidium sativum [42]): > 40%
Activity (Lactuca sativa [43]): >40%
inhibition at 100 µM (Solanum lycopersicum [44]): > 40%
Activity (Lactuca sativa [45]): 20%
inhibition at 100 µM (Allium cepa [46]; 120 h): > 40%
inhibition at 100 µM (Lactuca sativa [47]; 120 h): > 40%
Activity (Lepidium sativum [48]): -73%
Activity (Hordeum vulgare [49]): >40%
Activity (Lactuca sativa [50]): >40%
inhibition at 100 µM (Allium cepa [51]): > 40%
inhibition (Hordeum vulgare [52]): inactive
Activity (Triticum aestivum [53]): >40%
inhibition (Lepidium sativum [54]): Active
Activity (Lactuca sativa [55]): >40%
inhibition at 100 µM (Solanum lycopersicum [56]): > 40%
inhibition (Hordeum vulgare [57]): inactive
inhibition at 1 µM (Solanum lycopersicum [58]): -44%

COC(=O)[C@@]1(C)CCC[C@]2(C)C3=C(CC[C@@H]12)COC(=O)C3
Activity (Hordeum vulgare [1]): >40%
Activity (Solanum lycopersicum [2]): >40%
inhibition at 100 µM (Lepidium sativum [5]): < 20%
Activity (Allium cepa [8]): inactive
inhibition at 1 µM (Hordeum vulgare [59]): -71%
inhibition (Triticum aestivum [9]): inactive
inhibition (Triticum aestivum [10]): inactive
Activity (Allium cepa [11]): 20%
Activity (Hordeum vulgare [12]): >40%
inhibition at 100 µM (Solanum lycopersicum [13]): < 20%
Activity (Lepidium sativum [14]): <20%
Activity (Allium cepa [15]): <20%
Activity (Triticum aestivum [16]): inactive
inhibition (Lactuca sativa [18]): inactive
Activity (Solanum lycopersicum [19]): <20%
Activity (Triticum aestivum [21]): inactive
inhibition at 100 µM (Hordeum vulgare [22]): > 40%
Activity (Solanum lycopersicum [23]): <20%
Activity (Solanum lycopersicum [60]): 56%
inhibition at 100 µM (Lactuca sativa [24]): < 20%
inhibition (Lactuca sativa [25]): inactive
Activity (Lactuca sativa [26]): <20%
inhibition at 100 µM (Hordeum vulgare [27]): > 40%
Activity (Lactuca sativa [28]): <20%
inhibition at 100 µM (Hordeum vulgare [33]): > 40%
inhibition (Lepidium sativum [34]): inactive
inhibition at 100 µM (Lactuca sativa [35]): < 20%
inhibition at 100 µM (Allium cepa [36]): < 20%
inhibition (Triticum aestivum [37]): inactive
Activity (Lepidium sativum [38]): inactive
Activity (Lepidium sativum [39]): <20%
inhibition at 100 µM (Lactuca sativa [41]): < 20%
inhibition at 100 µM (Lepidium sativum [42]): < 20%
Activity (Lactuca sativa [43]): inactive
inhibition at 100 µM (Solanum lycopersicum [44]): > 40%
Activity (Lactuca sativa [45]): inactive
inhibition (Allium cepa [46]): inactive
inhibition (Lactuca sativa [47]): inactive
Activity (Hordeum vulgare [49]): >40%
Activity (Lactuca sativa [50]): <20%
inhibition at 100 µM (Allium cepa [51]): 20%
Activity (Triticum aestivum [53]): inactive
inhibition at 0.01 µM (Allium cepa [61]): -45%
Activity (Lactuca sativa [55]): inactive
inhibition at 100 µM (Solanum lycopersicum [56]): < 20%
